{"source": "patent US20240158355A1", "about": "“BET SUBFAMILY INHIBITORS AND METHODS USING SAME” (Baylor College of Medicine, priority 2021, published 2024)"}
{"target": "BRDT-BD2 (Homo sapiens (Human), UniProt Q58F21)", "test": "AlphaScreen bromodomain proximity assay (competition with biotinylated (+)-JQ1), BRDT-BD2", "assay_type": "binding", "units": {"IC50": "µM"}}
{"smiles": "CNC(=O)c1ccc(C(=O)Nc2cc(NC(=O)c3ccc4c(c3)c(-c3ccc(N)nc3C)nn4C)ccc2C)cc1", "note": "[compound 14, N^1-(5-(3-(6-Amino-2-methylpyridin-3-yl)-1-methyl-1H-indazole-5-carboxamido)-2-methylphenyl)-N^4-methylterephthalamide]", "IC50": 0.094}
{"smiles": "CC(=O)Nc1cc(NC(=O)c2ccc3c(c2)c(-c2cnc(N)cc2C)nn3C)ccc1C", "note": "[compound 16, N-(3-Acetamido-4-methylphenyl)-3-(6-amino-4-methylpyridin-3-yl)-1-methyl-1H-indazole-5-carboxamide]", "IC50": 0.126}
{"smiles": "COc1ccc(NC(=O)c2ccc3c(c2)c(-c2cc4ccccc4n2C)nn3C)cc1", "note": "[compound 28, N-(4-Methoxyphenyl)-1-methyl-3-(1-methyl-1H-indol-2-yl)-1H-indazole-5-carboxamide]", "IC50": 0.121}
{"smiles": "COc1ccc(NC(=O)c2ccc3c(c2)c(-c2cc4ccccc4n2C)nn3C)cc1C", "note": "[compound 29, N-(4-Methoxy-3-methylphenyl)-1-methyl-3-(1-methyl-1H-indol-2-yl)-1H-indazole-5-carboxamide]", "IC50": 0.111}
{"smiles": "COc1ccc(NC(=O)c2ccc3c(c2)c(-c2cc4ccccc4n2C)nn3C)cc1OC", "note": "[compound 30, N-(3,4-Dimethoxyphenyl)-1-methyl-3-(1-methyl-1H-indol-2-yl)-1H-indazole-5-carboxamide]", "IC50": 0.101}
{"smiles": "COc1ccc(NC(=O)c2ccc3c(c2)c(-c2cc4ccccc4n2C)nn3C)cc1F", "note": "[compound 31, N-(3-Fluoro-4-methoxyphenyl)-1-methyl-3-(1-methyl-1H-indol-2-yl)-1H-indazole-5-carboxamide]", "IC50": 0.119}
{"smiles": "COc1ccc(NC(=O)c2ccc3c(c2)c(-c2cc4ccccc4n2C)nn3C)cc1Cl", "note": "[compound 32, N-(3-Chloro-4-methoxyphenyl)-1-methyl-3-(1-methyl-1H-indol-2-yl)-1H-indazole-5-carboxamide]", "IC50": 0.164}
{"smiles": "COc1ccc(NC(=O)c2ccc3c(c2)c(-c2cc4ccccc4n2C)nn3C)c(C)c1", "note": "[compound 33, N-(4-Methoxy-2-methylphenyl)-1-methyl-3-(1-methyl-1H-indol-2-yl)-1H-indazole-5-carboxamide]", "IC50": 0.183}
{"smiles": "COc1ccc(NC(=O)c2ccc3c(c2)c(-c2cc4ccccc4n2C)nn3C)c(OC)c1", "note": "[compound 34, N-(2,4-Dimethoxyphenyl)-1-methyl-3-(1-methyl-1H-indol-2-yl)-1H-indazole-5-carboxamide]", "IC50": 0.926}
{"smiles": "COc1ccc(NC(=O)c2ccc3c(c2)c(-c2cc4ccccc4n2C)nn3C)c(F)c1", "note": "[compound 35, N-(2-Fluoro-4-methoxyphenyl)-1-methyl-3-(1-methyl-1H-indol-2-yl)-1H-indazole-5-carboxamide]", "IC50": 0.203}
{"smiles": "COc1ccc(NC(=O)c2ccc3c(c2)c(-c2cc4ccccc4n2C)nn3C)c(Cl)c1", "note": "[compound 36, N-(2-Chloro-4-methoxyphenyl)-1-methyl-3-(1-methyl-1H-indol-2-yl)-1H-indazole-5-carboxamide]", "IC50": "> 1.25"}
{"smiles": "CNC(=O)c1ccc(C(=O)Nc2cc(NC(=O)c3ccc4c(c3)c(-c3ccc(OCc5ccccc5)cc3)nn4C)ccc2C)cc1", "note": "[compound 37, N^1-(5-(3-(4-(Benzyloxy)phenyl)-1-methyl-1H-indazole-5-carboxamido)-2-methylphenyl)-N^4-methylterephthalamide]", "IC50": "> 10"}
{"smiles": "CNC(=O)c1ccc(C(=O)Nc2cc(NC(=O)c3ccc4c(c3)c(-c3ccc(N5CCNCC5)nc3)nn4C)ccc2C)cc1", "note": "[compound 38]", "IC50": "> 10"}
{"smiles": "CNC(=O)c1ccc(C(=O)Nc2cc(NC(=O)c3ccc4c(c3)c(-c3ccc(N5CCOCC5)nc3)nn4C)ccc2C)cc1", "note": "[compound 39, N^1-Methyl-N^4-(2-methyl-5-(1-methyl-3-(6-morpholinopyridin-3-yl)-1H-indazole-5-carboxamido)phenyl)terephthalamide]", "IC50": "> 10"}
{"smiles": "CNC(=O)c1ccc(C(=O)Nc2cc(NC(=O)c3ccc4c(c3)c(-c3ccc(Cl)cc3)nn4C)ccc2C)cc1", "note": "[compound 40, N^1-(5-(3-(4-Chlorophenyl)-1-methyl-1H-indazole-5-carboxamido)-2-methylphenyl)-N^4-methylterephthalamide]", "IC50": 0.106}
{"smiles": "CC(=O)Nc1cc(NC(=O)c2ccc3c(c2)c(-c2ccc(Cl)cc2C)nn3C)ccc1C", "note": "[compound 41, N-(3-Acetamido-4-methylphenyl)-3-(4-chloro-2-methylphenyl)-1-methyl-1H-indazole-5-carboxamide]", "IC50": 0.058}
{"smiles": "CC(=O)Nc1cc(NC(=O)c2ccc3c(c2)c(-c2ccc(Cl)cc2Cl)nn3C)ccc1C", "note": "[compound 42, N-(3-Acetamido-4-methylphenyl)-3-(2,4-dichlorophenyl)-1-methyl-1H-indazole-5-carboxamide]", "IC50": 0.32}
{"smiles": "COc1ccc(NC(=O)c2ccc3c(c2)c(-c2ccncc2)nn3C)cc1", "note": "[compound 43, N-(4-Methoxyphenyl)-1-methyl-3-(pyridin-4-yl)-1H-indazole-5-carboxamide]", "IC50": 0.978}
{"smiles": "COc1ccc(NC(=O)c2ccc3c(c2)c(-c2ccncc2C)nn3C)cc1", "note": "[compound 44, N-(4-Methoxyphenyl)-1-methyl-3-(3-methylpyridin-4-yl)-1H-indazole-5-carboxamide]", "IC50": 0.705}
{"smiles": "Cc1ccc(NC(=O)c2ccc3c(c2)c(-c2ccc(N)nc2)nn3C)cc1NC(=O)C1CCN(C)CC1", "note": "[compound 45, 3-(6-Aminopyridin-3-yl)-1-methyl-N-(4-methyl-3-(1-methylpiperidine-4-carboxamido)phenyl)-1H-indazole-5-carboxamide]", "IC50": 0.058}
{"smiles": "Cc1ccc(NC(=O)c2ccc3c(c2)c(-c2ccc(N)nc2)nn3C)cc1NC(=O)N1CCNCC1", "note": "[compound 46, 3-(6-Aminopyridin-3-yl)-1-methyl-N-(4-methyl-3-(piperazine-1-carboxamido)phenyl)-1H-indazole-5-carboxamide]", "IC50": 0.079}
{"smiles": "Cc1ccc(NC(=O)c2ccc3c(c2)c(-c2ccc(N)nc2)nn3C)cc1NC(=O)C1CCCCC1", "note": "[compound 47, 3-(6-Aminopyridin-3-yl)-N-(3-(cyclohexanecarboxamido)-4-methylphenyl)-1-methyl-1H-indazole-5-carboxamide]", "IC50": 0.113}
{"smiles": "Cc1ccc(NC(=O)c2ccc3c(c2)c(-c2ccc(N)nc2)nn3C)cc1NC(=O)[C@H]1CC[C@@H](N)CC1", "note": "[compound 48, N-(3-((1s,4s)-4-Aminocyclohexane-1-carboxamido)-4-methylphenyl)-3-(6-aminopyridin-3-yl)-1-methyl-1H-indazole-5-carboxamide]", "IC50": 0.051}
{"smiles": "CNC(=O)[C@H]1CC[C@H](C(=O)Nc2cc(NC(=O)c3ccc4c(c3)c(-c3ccc(N)nc3)nn4C)ccc2C)CC1", "note": "[compound 49]", "IC50": 0.068}
{"smiles": "CN1CCC(NC(=O)c2ccc3c(c2)c(-c2ccc(N)nc2)nn3C)CC1", "note": "[compound 50, 3-(6-Aminopyridin-3-yl)-1-methyl-N-(1-methylpiperidin-4-yl)-1H-indazole-5-carboxamide]", "IC50": "> 0.2"}
{"smiles": "CC(=O)N1CCC(NC(=O)c2ccc3c(c2)c(-c2ccc(N)nc2)nn3C)CC1", "note": "[compound 51, N-(1-Acetylpiperidin-4-yl)-3-(6-aminopyridin-3-yl)-1-methyl-1H-indazole-5-carboxamide]", "IC50": "> 0.2"}
{"smiles": "Cn1nc(-c2ccc(N)nc2)c2cc(C(=O)NC3CCN(C(=O)OC(C)(C)C)CC3)ccc21", "note": "[compound 52, tert-Butyl 4-(3-(6-aminopyridin-3-yl)-1-methyl-1H-indazole-5-carboxamido)piperidine-1-carboxylate]", "IC50": "> 0.2"}
{"smiles": "Cn1nc(-c2ccc(N)nc2)c2cc(C(=O)NC3CCNCC3)ccc21", "note": "[compound 53, 3-(6-Aminopyridin-3-yl)-1-methyl-N-(piperidin-4-yl)-1H-indazole-5-carboxamide]", "IC50": "> 0.2"}
{"smiles": "Cn1nc(-c2ccc(N)nc2)c2cc(C(=O)Nc3cccc(C(=O)O)c3)ccc21", "note": "[compound 54, 3-(3-(6-Aminopyridin-3-yl)-1-methyl-1H-indazole-5-carboxamido)benzoic acid]", "IC50": 0.381}
{"smiles": "Cc1ccc(NC(=O)c2ccc3c(c2)c(-c2ccc(N)cc2C)nn3C)cc1C(N)=O", "note": "[compound 56, 3-(4-Amino-2-methylphenyl)-N-(3-carbamoyl-4-methylphenyl)-1-methyl-1H-indazole-5-carboxamide]", "IC50": 0.034}
{"smiles": "CNC(=O)c1cccc(NC(=O)c2ccc3c(c2)c(-c2ccc(N)cc2C)nn3C)c1", "note": "[compound 57, 3-(4-Amino-2-methylphenyl)-1-methyl-N-(3-(methylcarbamoyl)phenyl)-1H-indazole-5-carboxamide]", "IC50": 0.029}
{"smiles": "Cc1ccc(NC(=O)c2ccc3c(c2)c(-c2ccc(N)cc2C)nn3C)cc1NS(C)(=O)=O", "note": "[compound 58, 3-(4-Amino-2-methylphenyl)-1-methyl-N-(4-methyl-3-(methylsulfonamido)phenyl)-1H-indazole-5-carboxamide]", "IC50": 0.067}
{"smiles": "Cc1ccc(NC(=O)c2ccc3c(c2)c(-c2ccc(N)cc2C)nn3C)cc1", "note": "[compound 60, 3-(4-Amino-2-methylphenyl)-1-methyl-N-(p-tolyl)-1H-indazole-5-carboxamide]", "IC50": 0.091}
{"smiles": "Cc1cc(N)ccc1-c1nn(C)c2ccc(C(=O)Nc3ccc(C(F)(F)F)cc3)cc12", "note": "[compound 61, 3-(4-Amino-2-methylphenyl)-1-methyl-N-(4-(trifluoromethyl)phenyl)-1H-indazole-5-carboxamide]", "IC50": 0.898}
{"smiles": "CCOc1ccc(NC(=O)c2ccc3c(c2)c(-c2ccc(N)cc2C)nn3C)cc1", "note": "[compound 62, 3-(4-Amino-2-methylphenyl)-N-(4-ethoxyphenyl)-1-methyl-1H-indazole-5-carboxamide]", "IC50": 0.048}
{"smiles": "Cc1cc(N)ccc1-c1nn(C)c2ccc(C(=O)Nc3ccc(F)cc3)cc12", "note": "[compound 63, 3-(4-Amino-2-methylphenyl)-N-(4-fluorophenyl)-1-methyl-1H-indazole-5-carboxamide]", "IC50": 0.101}
{"smiles": "Cc1cc(N)ccc1-c1nn(C)c2ccc(C(=O)Nc3ccc(Cl)cc3)cc12", "note": "[compound 64, 3-(4-Amino-2-methylphenyl)-N-(4-chlorophenyl)-1-methyl-1H-indazole-5-carboxamide]", "IC50": 0.209}
{"smiles": "COc1ccc(NC(=O)c2ccc3c(c2)c(-c2ccc(NC(C)=O)cc2C)nn3C)cc1", "note": "[compound 66, 3-(4-Acetamido-2-methylphenyl)-N-(4-methoxyphenyl)-1-methyl-1H-indazole-5-carboxamide]", "IC50": "> 10"}
